Key:
HLF cells = test: Cell viability assay (crystal violet); type: cell-based
Method: Human colorectal adenocarcinoma HT29 and Caco-2 cells, hepatocellular carcinoma HLE cells, cholangiocarcinoma RBE and KKU-M213 cells were purchased from the American […] Culture Collection (ATCC, Manassas, VA, USA). The hepatocellular carcinoma cell line HLF was purchased from JCRB Cell Bank (Japan). All cell lines were cultured in Dulbecco's Modified Eagle Medium (DMEM) supplemented with 10% foetal bovine serum (FBS), 1 mM pyruvate, 25 mM HEPES, 100 U/mL penicillin-streptomycin (all from Thermo Fisher Scientific, Waltham, MA, USA), and maintained in a humidified atmosphere at 37 °C containing 5% CO2. The medium was changed every three days. Oleoyl-LPA was purchased from Avanti Polar Lipids (Birmingham, AL).
Cells were seeded in 96-well plates at a density of 2000 cells/well in 10% FBS supplemented medium. After 24 h, medium was removed, the cells washed with PBS and cultured in the presence or absence of FBS and of different concentrations of Compound land LPA. After the time set for the experiment, the cells were fixed with a 4% PFA solution and stained with 0.02% crystal violet for 10 min. Subsequently the plates have been washed with water to remove excess dye. The cell-bound dye was redissolved in 1% SDS and the optical density was measured at λ=570 with a iMark™ Microplate Absorbance Reader (Bio-rad).
FIGS. 2A and 2B show the effect of Compound 1 on cell proliferation in the absence of FBS and in the presence of 10% FBS. […] Cells were grown in serum free culture medium or in presence of 10% FBS and incubated with increasing Compound 1 concentrations or with DMSO (control cells) for 24, 48 and 72 hours. After fixation, proliferation was assessed by crystal violet staining method. *P<0.05.
To evaluate the anti-proliferative/cytotoxic effects of Compound 1, six different cancer tumour cell lines were treated developed from cholangiocarcinoma (CCA), hepatocellular carcinoma (HCC) and colorectal cancer (CRC), with increasing concentration of the Compound 1 ranging from 10 μM up to 50 μM and at different times of incubation. […]

[1] = tested on: Intrahepatic cholangiocarcinoma cancer cells (patient-derived organoid cultures); test: Patient-derived organoid formation/growth; type: cell-based; details: 3, 9 and 12 μm (so in the source), 14 days, compared to vehicle, P<0.001
Method: To further explore the activity of Compound 1 on gastrointestinal cancer cells, the effectiveness on organoid formation was investigated. Intrahepatic cholangiocarcinoma cancer cells were isolated from tumour tissues, counted and embedded in 96-well plate with Matrigel. After 3D-model formation, three different concentrations of Compound 1 (3, 9 and 12 μm) were tested in these patient-derived organoid (PDO) cultures. […] Scale bars correspond to 50 μm, Data are presented as the mean±SD; ***P<0.001.

ATX = details: cited from earlier work

## C[C@H](NC(=O)CCc1nc2cccnc2n1Cc1ccc(OC(F)(F)F)cc1)c1ccc(Cl)cc1 [Compound 1, N-[(S)-1-(4-chloro-phenyl)-ethyl]-3-[3-(4-trifluoromethoxy-benzyl)-3H-imidazo[4,5-b]pyridin-2-yl]-propionamide]
HLF cells; 1 μM up to 12 μM, 10% FBS, 24, 48 and 72 h
  effect on cell proliferation: generally the same as the control
HLF cells; 3 to 12 μM, absence of FBS, evident after 48 h, stronger after 72 h
  cytotoxic effect / inhibition of cell proliferation: significant (p<0.05) cytotoxic effect in a dose-dependent manner
HLF cells; 30 to 50 μM, medium with 10% FBS
  cytotoxic effect: significant (p<0.05) cytotoxic effect
[1]
  organoid growth inhibition: significant organoid growth inhibition
ATX
  ATX inhibition: inhibits ATX with high selectivity

— patent US20260364056A1, “METHODS OF TREATMENT OF NON-PANCREATIC GASTROINTESTINAL CANCERS” (IONCTURA bv, priority 2023, published 2026)
